Results on 2 molecules are retold here after patent publication US8748343B2, “Herbicide/safener combintions” (Bayer Cropscience AG, priority 1998, dated 2014).

In one series the test system is maize. As to the kind of experiment: Field trial, phytotoxicity to maize (post-emergence). The protocol:
(§1) The field experiments were carried out in plots of 8 to 10 m^2, and each experiment was carried out in 2 to 4 replications. After the crop plants had been sown, the test preparations were applied pre-emergence, or in the 2-6-leaf stage, using plot sprayers. The spray volume was 100-300 l water/ha; it was applied by means of flat-jet nozzles at a pressure of 2-3 bar. Evaluation was done by visual scoring. The effects on the crop plants or on the broad-leaved weeds/grass weeds were estimated in comparison with untreated control plots using a percentage scale (0-100%). After application, the plants were scored 3-4 times at intervals of approx. 14, 28, 42 days after application. The results represent averages over 2-4 replications. […] Anti-weed action should show efficacies of ≧60%. From sowing until the experiments were concluded, they were exposed to the natural weather conditions (precipitation, temperature, atmospheric humidity, insolation), as they are characteristic for the experimental sites.

The test system of the next series is Setaria faberi. Briefly: Field trial, action on grass weeds/broad-leaved weeds (post-emergence). Format: in vivo. Conditions: 100 g a.i./ha. On the procedure: as §1
The next series concerns Panicum minor. Described as above. Format: in vivo. Conditions: 100 g a.i./ha. The protocol: as §1
A further series has as its system Abutilon theophrastis. The description is as above. Format: in vivo. Conditions: 100 g a.i./ha. The protocol: as §1

Regarding `CCOC(=O)C1=NOC(c2ccccc2)(c2ccccc2)C1` [Safener II-9, Ethyl 5,5-diphenyl-2-isoxazoline-3-carboxylate], the “Phytotoxicity to maize [%] 14 dat” value in the series on maize (field trial, 4-leaf stage (Table 11), 120 g a.i./ha, 14 days after treatment) is 0%; with maize (field trial, 4-leaf stage, post-emergence, 100 g a.i./ha, 14 days after treatment), 0%; in the series on maize (field trial, mixture with sulfonylureas, post-emergence (Table 13), 120 g a.i./ha, 14 days after treatment), 0%. Also, the “Phytotoxicity to maize [%] 42 dat” value in the series with maize (field trial, 4-leaf stage (Table 11), 120 g a.i./ha, 42 days after treatment) was 0%; in the series with maize (field trial, mixture with sulfonylureas, post-emergence (Table 13), 120 g a.i./ha, 42 days after treatment) it was 0%. In addition, in the series with maize (field trial, 4-leaf stage, post-emergence, 100 g a.i./ha, 31 days after treatment), the “Phytotoxicity to maize [%] 31 dat” value is given as 0%. In addition, in the series with maize (field trial, post-emergence (Table 12), 100 g a.i./ha), the “Phytotoxicity [%] Maize” value was determined as 0%. Moreover, in the series on Setaria faberi, the “Phytotoxicity [%] Setaria faberi” value is recorded as 0%. The “Phytotoxicity [%] Panicum minor” value in the series on Panicum minor amounted to 0%. The “Phytotoxicity [%] Abutilon theophrastis” value with Abutilon theophrastis worked out at 0%.

As for `COc1cc(OC)nc(NC(=O)NS(=O)(=O)c2cc(NC=O)ccc2C(=O)N(C)C)n1` [Herbicide 2, N,N-Dimethyl-2-[3-(4,6-dimethoxypyrimidin-2-yl)ureido-sulfonyl]-4-formylaminobenzamide], the “Phytotoxicity to maize [%] 14 dat” value with maize (maize, in vivo, 14 days) worked out at 13%. For the same molecule, the “Phytotoxicity to maize [%] 42 dat” value in the series on maize (maize, in vivo, 42 days) came out at 7%.
